{
  "source": "patent US20220362386A1",
  "about": "“LIQUID COMPOSITIONS COMPRISING A LEVODOPA AMINO ACID CONJUGATE AND USES THEREOF” (NeuroDerm, Ltd., priority 2019, published 2022)",
  "key": {"[1]": {"experiment": "Analytical stability of LD-Tyr/CD formulations by HPLC (Tables 42-45c)", "settings": "for % retention, t = 1 week / Analytical stability result (HPLC), t = 1 week / % retention, t = 2 weeks / Analytical stability result (HPLC), t = 2 weeks: NB 144-4 formulation; for Analytical stability result (HPLC), t = 1 week / Analytical stability result (HPLC), t = 2 weeks: in mg/mL (unit assumed)", "procedure": "(§1) It is noted that the recovery % compared the amount of any given material as measured at t=28 h (or any other presented value) compared to the amount of that material, at measured at t=0."}, "[2]": {"settings": "0 weeks", "procedure": "as §1"}, "[3]": {"experiment": "LD-Arg, LD-Lys and LD-Tyr formulations of Experimental Example 12, physical stability (Tables 35-41)", "assay_type": "physicochemical", "settings": "for Physical Stability: room temperature overnight", "description": "Formulations as described in the tables below were prepared by adding a CD solution and dissolving all ingredients together. The CD for the LD-Arg formulation was prepared as follows: WFI was added to a bottle, after which Tween® 80 and sodium bisulfite were added, stirred to dissolution, and heated to 60° C. CD was added, stirred for 1-2 minutes to achieve homogenization. Finally, L-Arginine was added, the bottle was flushed with nitrogen, tightly closed and stirred 15 min. Dissolution was verified and the preparation was allowed to cool to ambient temperature. The pH was measured, and the preparation was transferred to a measurement bottle, where the volume was completed to the predefined final volume by adding WFI. The preparation was then filtered through sterile 0.22 μm nylon filter, transferred to 20 ml vials, after which nitrogen was purged into the headspace and the vials were frozen at −20° C. until use.\nThe CD solution for the LD-Tyr and LD-Lys formulations was prepared as follows: WFI was added to a bottle. Tween® 80 and sodium bisulfite were added, stirred to dissolution and heated to 60° C. CD was added, and stirred for 1-2 minutes to achieve homogenization. NaOH was added, after which the bottle was washed with nitrogen, closed tightly and stirred for 15 minutes. Dissolution was verified and the preparation was allowed to cool to ambient temperature. The pH was measured, and preparation was transferred to a measurement bottle, in which the volume was completed to final predefined volume by adding WFI. The preparation was then filtered through a sterile 0.22 μm nylon filter, transferred to 20 ml vials, after which nitrogen was purged into headspace and the vials were frozen at −20° C. until use."}, "[4]": {"settings": "NB 144-32 (F1), 37% LD-Tyr/0.5% CD"}, "[5]": {"settings": "NB 144-34 (F2), 44% LD-Tyr/0.5% CD"}, "[6]": {"settings": "NB 144-39 (F3), 30% LD-Tyr/0.5% CD"}, "[7]": {"settings": "t = 12 days, LD-Tyr 37.0%, CD 0.75%, L-Arginine 6.00, NaOH 0, TRIS 13, pH 8.14"}, "[8]": {"settings": "t = 14 days, LD-Tyr 44.0%, CD 0.75%, L-Arginine 25.70, NaOH 0, TRIS 0, pH 8.34"}, "[9]": {"settings": "t = 26 days, LD-Tyr 37.0%, CD 0.75%, L-Arginine 6.00, NaOH 0, TRIS 12.124, pH 8.12"}, "[10]": {"settings": "t = 26 days, LD-Tyr 44.0%, CD 0.75%, L-Arginine 6.76, NaOH 0, TRIS 13.726, pH 8.08"}},
  "note": "Structures can show the parent of a compound that is named as a salt. Non-standard residues stand in square brackets, D forms with d. Residues, ends and D or L forms follow the SMILES beside them. Dopa = N[C@@H](Cc1ccc(O)c(O)c1)C(=O)O",
  "data": [
    {"smiles": "N[C@@H](Cc1ccc(O)c(O)c1)C(=O)N[C@@H](Cc1ccc(O)cc1)C(=O)O", "note": "[LD-Tyr TFA salt, Levodopa Tyrosine TFA Salt] (H-[Dopa]-Tyr-OH)", "values": [
      {"measurement": "% retention, t = 1 week", "setting": "[1]; Storage temp. 2-8° C.", "value": 98.8, "unit": "%"},
      {"measurement": "Analytical stability result (HPLC), t = 1 week", "setting": "[1]; Storage temp. 2-8° C.", "value": 323.22},
      {"measurement": "% retention, t = 2 weeks", "setting": "[1]; Storage temp. 2-8° C.", "value": 99.7, "unit": "%"},
      {"measurement": "Analytical stability result (HPLC), t = 2 weeks", "setting": "[1]; Storage temp. 2-8° C.", "value": 326.20},
      {"measurement": "% retention, t = 1 week", "setting": "[1]; Storage temp. 25° C.", "value": 101.1, "unit": "%"},
      {"measurement": "Analytical stability result (HPLC), t = 1 week", "setting": "[1]; Storage temp. 25° C.", "value": 330.81},
      {"measurement": "% retention, t = 2 weeks", "setting": "[1]; Storage temp. 25° C.", "value": 97.3, "unit": "%"},
      {"measurement": "Analytical stability result (HPLC), t = 2 weeks", "setting": "[1]; Storage temp. 25° C.", "value": 318.15},
      {"measurement": "% retention, t = 1 week", "setting": "[1]; Storage temp. 40° C.", "value": 93.0, "unit": "%"},
      {"measurement": "Analytical stability result (HPLC), t = 1 week", "setting": "[1]; Storage temp. 40° C.", "value": 304.24},
      {"measurement": "Concentration (HPLC), t = 0", "setting": "[1]; [4]", "value": 364.15},
      {"measurement": "Concentration (HPLC), t = 28 h at 32° C.", "setting": "[1]; [4]", "value": 352.22},
      {"measurement": "Concentration (HPLC), t = 0", "setting": "[1]; [5]", "value": 437.98},
      {"measurement": "Concentration (HPLC), t = 28 h at 32° C.", "setting": "[1]; [5]", "value": 424.09},
      {"measurement": "Concentration (HPLC), t = 0", "setting": "[1]; [6]", "value": 295.42},
      {"measurement": "Concentration (HPLC), t = 28 h at 32° C.", "setting": "[1]; [6]", "value": 291.94},
      {"measurement": "Analytical stability result (HPLC), t = 0", "setting": "[2]", "value": 327.05},
      {"measurement": "Physical Stability", "setting": "[3]; LD-Tyr 20%, Arg 0%, TRIS 8.8%, pH 7.94, molar ratio 1:1.20", "value": "Precipitated"},
      {"measurement": "Physical Stability", "setting": "[3]; LD-Tyr 30%, Arg 4.5%, TRIS 9.72%, pH 8.00, molar ratio 1:1.20", "value": "Stable"},
      {"measurement": "Physical Stability", "setting": "[3]; LD-Tyr 37%, Arg 5.8%, TRIS 11.7%, pH 8.12, molar ratio 1:1.32", "value": "Stable"},
      {"measurement": "Physical Stability", "setting": "[3]; LD-Tyr 44%, Arg 6.8%, TRIS 13.8%, pH 8.02, molar ratio 1:1.20", "value": "Stable"},
      {"measurement": "Physical Stability", "setting": "[3]; LD-Tyr 44%, Arg 7.33%, TRIS 14.9%, pH 8.08, molar ratio 1:1.30", "value": "Stable"},
      {"measurement": "Appearance, 25° C.", "setting": "[3]; t = 1 days, LD-Tyr 44.0%, CD 0%, L-Arginine 21.4, NaOH 0.60, TRIS 0, pH 8.29", "value": "Stable"},
      {"measurement": "Appearance, Refrigerated (2-8° C.)", "setting": "[3]; t = 1 days, LD-Tyr 44.0%, CD 0.75%, L-Arginine 6.27, NaOH 0, TRIS 12.69, pH 8.02", "value": "Stable"},
      {"measurement": "Appearance, 25° C.", "setting": "[3]; t = 3 days, LD-Tyr 44.0%, CD 0.75%, L-Arginine 6.27, NaOH 0, TRIS 12.69, pH 8.02", "value": "Stable"},
      {"measurement": "Appearance, Refrigerated (2-8° C.)", "setting": "[3]; t = 7 days, LD-Tyr 44.0%, CD 0.75%, L-Arginine 8.00, NaOH 0, TRIS 15, pH 8.15", "value": "Stable"},
      {"measurement": "Appearance, 25° C.", "setting": "[3]; [7]", "value": "Stable"},
      {"measurement": "Appearance, Refrigerated (2-8° C.)", "setting": "[3]; [7]", "value": "Stable"},
      {"measurement": "Appearance, 25° C.", "setting": "[3]; t = 12 days, LD-Tyr 44.0%, CD 0.75%, L-Arginine 21.4, NaOH 0.60, TRIS 0, pH 8.29", "value": "Stable"},
      {"measurement": "Appearance, 25° C.", "setting": "[3]; t = 14 days, LD-Tyr 44.0%, CD 0.75%, L-Arginine 8.00, NaOH 0, TRIS 15, pH 8.15", "value": "Stable"},
      {"measurement": "Appearance, 25° C.", "setting": "[3]; [8]", "value": "Stable"},
      {"measurement": "Appearance, Refrigerated (2-8° C.)", "setting": "[3]; [8]", "value": "Stable"},
      {"measurement": "Appearance, 25° C.", "setting": "[3]; t = 24 days, LD-Tyr 44.0%, CD 0.75%, L-Arginine 21.86, NaOH 0.60, TRIS 0, pH 8.57", "value": "Stable"},
      {"measurement": "Appearance, 25° C.", "setting": "[3]; [9]", "value": "Stable"},
      {"measurement": "Appearance, Refrigerated (2-8° C.)", "setting": "[3]; [9]", "value": "Stable"},
      {"measurement": "Appearance, 25° C.", "setting": "[3]; [10]", "value": "Stable"},
      {"measurement": "Appearance, Refrigerated (2-8° C.)", "setting": "[3]; [10]", "value": "Stable"},
      {"measurement": "Appearance, 25° C.", "setting": "[3]; t = 27 days, LD-Tyr 44.0%, CD 0.75%, L-Arginine 25.72, NaOH 0, TRIS 0, pH 8.43", "value": "Stable"},
      {"measurement": "Appearance, Refrigerated (2-8° C.)", "setting": "[3]; t = 44 days, LD-Tyr 30.0%, CD 0.75%, L-Arginine 7.00, NaOH 0, TRIS 10.5, pH 8.23", "value": "precipitated"},
      {"measurement": "Appearance, Refrigerated (2-8° C.)", "setting": "[3]; t = 50 days, LD-Tyr 30.0%, CD 0.75%, L-Arginine 18.10, NaOH 0, TRIS 0, pH 8.36", "value": "Stable"},
      {"measurement": "Appearance, Refrigerated (2-8° C.)", "setting": "[3]; t = 56 days, LD-Tyr 44.0%, CD 0.75%, L-Arginine 21.86, NaOH 0.60, TRIS 0, pH 8.57", "value": "Stable"},
      {"measurement": "Appearance, 25° C.", "setting": "[3]; t = 70 days, LD-Tyr 38.0%, CD 0%, L-Arginine 21.90, NaOH 0, TRIS 0, pH 8.43", "value": "Stable"},
      {"measurement": "Appearance, Refrigerated (2-8° C.)", "setting": "[3]; t = 70 days, LD-Tyr 44.0%, CD 0.75%, L-Arginine 25.72, NaOH 0, TRIS 0, pH 8.43", "value": "Stable"}
    ]}
  ]
}
